In patent US20080300199A1, “ANTIBACTERIAL 1,4,5-SUBSTITUTED AMINOGLYCOSIDE ANALOGS” (Achaogen Inc., priority 2007, published 2008):
≈ marks a conversion by molar mass, not a printed value.

Key:
Format in all cases: cell-based
E. coli ATCC 25922 = assay: MIC assay, E. coli ATCC 25922; settings: absorbance at 595 nm after 24 h; for MIC: Escherichia coli, ATCC25922, read-out: MIC (μg/ml) E. coli ATCC 25922
Protocol: (§1) The MIC assays were carried out in 150 μL volume in duplicate in 96-well clear flat-bottom plates. The bacterial suspension from an overnight culture growth in appropriate medium was added to a solution of test compound in 4% DMSO in water. Final bacterial inoculum was approximately 10^5-10^6 CFU/well. […] Both ampicillin and tetracycline are used as antibiotic-positive controls in each screening assay for E. coli, S. aureus and K. pneumoniae. […] Amikacin is used as an antibiotic-positive control in each screening assay for A. baumannii. Each of the bacterial cultures that are available from ATCC (www.atcc.org) is identified by its ATCC number.

S. aureus ATCC 29213 = assay: MIC assay, S. aureus ATCC 29213; settings: absorbance at 595 nm after 24 h; for MIC: Staphylococcus aureus, ATCC29213, read-out: MIC (μg/ml) S. aureus ATCC 29213
Protocol: (§2) The MIC assays were carried out in 150 μL volume in duplicate in 96-well clear flat-bottom plates. The bacterial suspension from an overnight culture growth in appropriate medium was added to a solution of test compound in 4% DMSO in water. Final bacterial inoculum was approximately 10^5-10^6 CFU/well. The percent growth of the bacteria in test wells relative to that observed for a well containing no compound was determined by measuring absorbance at 595 nm (A595) after 24 h. […] Both ampicillin and tetracycline are used as antibiotic-positive controls in each screening assay for E. coli, S. aureus and K. pneumoniae. Ciprofloxacin is used as an antibiotic-positive control in each screening assay for P. aeruginosa. Amikacin is used as an antibiotic-positive control in each screening assay for A. baumannii. Each of the bacterial cultures that are available from ATCC (www.atcc.org) is identified by its ATCC number.

P. aeruginosa ATCC 27853 = assay: MIC assay, P. aeruginosa ATCC 27853; settings: absorbance at 595 nm after 24 h; for MIC: Pseudomonas aeruginosa, ATCC27853, read-out: MIC (μg/ml) P. aeruginosa ATCC 27853
Protocol: as §1

K. pneumoniae ATCC 10031 = assay: MIC assay, K. pneumoniae ATCC 10031; settings: absorbance at 595 nm after 24 h; for MIC: Klebsiella pneumoniae, ATCC10031, read-out: MIC (μg/ml) K. pneumoniae ATCC 10031
Protocol: as §2

A. baumannii ATCC 19606 = assay: MIC assay, A. baumannii ATCC 19606; settings: absorbance at 595 nm after 24 h; for MIC: Acinetobacter baumannii, ATCC19606, read-out: MIC (μg/ml) A. baumannii ATCC 19606
Protocol: as §2

P. aeruginosa APAE040 = assay: MIC assay, aminoglycoside-resistant P. aeruginosa APAE040; settings: origin SPRI; for MIC: Pseudomonas aeruginosa, APAE040, phenotype AAC(3)-I, read-out: MIC (μg/ml) APAE040; for MIC (μg/ml) APAE040: phenotype AAC(3)-I
Protocol: as §2
(§3) MIC assays were carried out as set forth in Example 20 above against certain aminoglycoside-resistant strains of Pseudomonas Aeruginosa.

P. aeruginosa APAE042 = assay: MIC assay, aminoglycoside-resistant P. aeruginosa APAE042; settings: origin SPRI; for MIC: Pseudomonas aeruginosa, APAE042, phenotype AAC(6′)-II, read-out: MIC (μg/ml) APAE042; for MIC (μg/ml) APAE042: phenotype AAC(6′)-II
Protocol: as §2, §3

P. aeruginosa APAE1009 = assay: MIC assay, aminoglycoside-resistant P. aeruginosa APAE1009; settings: origin RJ - Greece; for MIC: Pseudomonas aeruginosa, APAE1009, phenotype AAC(6′)-I + Efflux, read-out: MIC (μg/ml) APAE1009; for MIC (μg/ml) APAE1009: phenotype AAC(6′)-I + Efflux
Protocol: as §2, §3

P. aeruginosa APAE1058 = assay: MIC assay, aminoglycoside-resistant P. aeruginosa APAE1058; settings: origin CF - USA; for MIC: Pseudomonas aeruginosa, APAE1058, phenotype High level efflux, read-out: MIC (μg/ml) APAE1058; for MIC (μg/ml) APAE1058: phenotype High level efflux
Protocol: as §2, §3

P. aeruginosa APAE1068 = assay: MIC assay, aminoglycoside-resistant P. aeruginosa APAE1068; settings: origin Focus - France; for MIC: Pseudomonas aeruginosa, APAE1068, phenotype AAC(6′)-I + Efflux, read-out: MIC (μg/ml) APAE1068; for MIC (μg/ml) APAE1068: phenotype AAC(6′)-I + Efflux
Protocol: as §2, §3

[1] = test system: aminoglycoside-resistant Pseudomonas aeruginosa; assay: MIC assays against aminoglycoside-resistant strains of Pseudomonas aeruginosa, summary in words; settings: particularly strains expressing efflux-based resistance alone or with AMEs; in comparison to compound 10 and comparative compounds A and B
Protocol: as §2, §3

MIC (E. coli ATCC 25922) [µg/mL]	MIC (S. aureus ATCC 29213) [µg/mL]	MIC (P. aeruginosa ATCC 27853) [µg/mL]	MIC (K. pneumoniae ATCC 10031) [µg/mL]	MIC (A. baumannii ATCC 19606) [µg/mL]	MIC (P. aeruginosa APAE040) [µg/mL]	MIC (P. aeruginosa APAE042) [µg/mL]	MIC (P. aeruginosa APAE1009) [µg/mL]	MIC (P. aeruginosa APAE1058) [µg/mL]	MIC (P. aeruginosa APAE1068) [µg/mL]	MIC (μg/ml) APAE040 (P. aeruginosa APAE040) [µg/mL]	MIC (μg/ml) APAE042 (P. aeruginosa APAE042) [µg/mL]	MIC (μg/ml) APAE1009 (P. aeruginosa APAE1009) [µg/mL]	MIC (μg/ml) APAE1058 (P. aeruginosa APAE1058) [µg/mL]	MIC (μg/ml) APAE1068 (P. aeruginosa APAE1068) [µg/mL]	Structure (SMILES)	further results
1 to 8 (≈ 1.47 to 11.7 µM)	< 1	1 to 8 (≈ 1.47 to 11.7 µM)	< 1	1 to 8 (≈ 1.47 to 11.7 µM)	1 (≈ 1.47 µM)	0.5 (≈ 0.733 µM)	2	16 (≈ 23.5 µM)	2						NCC[C@H](O)C(=O)N[C@@H]1C[C@H](N)[C@@H](O[C@H]2O[C@H](CN)C=C[C@H]2N)[C@H](O[C@@H]2O[C@H](CO)[C@@H](O[C@H]3O[C@@H](CN)[C@@H](O)[C@H](O)[C@H]3N)[C@H]2O)[C@H]1O [Compound 11]	activity on aminoglycoside-resistant Pseudomonas aeruginosa strains [1]: superior activity
< 1	< 1	< 1	< 1	1 to 8 (≈ 1.46 to 11.7 µM)	2 (≈ 2.93 µM)	1 (≈ 1.46 µM)	4	32 (≈ 46.8 µM)	8						NCC[C@H](O)C(=O)N[C@@H]1C[C@H](N)[C@@H](O[C@H]2O[C@H](CN)CC[C@H]2N)[C@H](O[C@@H]2O[C@H](CO)[C@@H](O[C@H]3O[C@@H](CN)[C@@H](O)[C@H](O)[C@H]3N)[C@H]2O)[C@H]1O [Compound 10, 3′,4′-Di-deoxy-N-1 haba neomycin]	
										1 (≈ 1.72 µM)	2 (≈ 3.43 µM)	>8	>8	4	NCC1CCC(N)C(OC2C(N)CC(N)C(O)C2OC2OC(CO)C(OC3OC(CN)C(O)C(O)C3N)C2O)O1 (centres unmarked) [B, 3′,4′-Di-deoxy-neomycin-B, reference compound]	
1 to 8 (≈ 1.71 to 13.7 µM)	1 to 8 (≈ 1.71 to 13.7 µM)	1 to 8 (≈ 1.71 to 13.7 µM)	< 1	> 8											NCC[C@H](O)C(=O)N[C@@H]1C[C@H](N)[C@@H](O[C@H]2O[C@H](CN)[C@@H](O)[C@H](O)[C@H]2O)[C@H](O)[C@H]1O[C@H]1O[C@H](CO)[C@@H](O)[C@H](N)[C@H]1O [Amikacin, reference compound]	
															NCC[C@H](O)C(=O)NC1CC(N)C(OC2OC(CN)CC(O)C2N)C(OC2OC(CO)C(OC3OC(CN)C(O)C(O)C3N)C2O)C1O (some centres unmarked) [Compound 18, 4′-Deoxy-N-1 haba neomycin]	MIC (μg/ml) E. coli ATCC 25922 (E. coli ATCC 25922): B (MIC's of greater than 1.0 μg/mL to 8.0 μg/mL = B); MIC (μg/ml) S. aureus ATCC 29213 (S. aureus ATCC 29213): B (MIC's of greater than 1.0 μg/mL to 8.0 μg/mL = B); MIC (μg/ml) P. aeruginosa ATCC 27853 (P. aeruginosa ATCC 27853): A (MIC's of 1.0 μg/mL or less = A); MIC (μg/ml) K. pneumoniae ATCC 10031 (K. pneumoniae ATCC 10031): A (MIC's of 1.0 μg/mL or less = A); MIC (μg/ml) A. baumannii ATCC 19606 (A. baumannii ATCC 19606): B (MIC's of greater than 1.0 μg/mL to 8.0 μg/mL = B)
										4 (≈ 6.89 µM)	4 (≈ 6.89 µM)	>8	>8	8	NCC1C=CC(N)C(OC2C(N)CC(N)C(O)C2OC2OC(CO)C(OC3OC(CN)C(O)C(O)C3N)C2O)O1 (centres unmarked) [A, 3′,4′-Di-deoxy-3′,4′-Di-dehydro-neomycin-B, reference compound]	
